Measurements as given in patent US9453034B2, “C2-azaspiro iminothiazine dioxides as BACE inhibitors, compositions, and their use” (Merck Sharp & Dohme Corp., priority 2013, dated 2016).

Legend:
[1] = target: purified human autoBACE-2 (Homo sapiens (Human), UniProt Q9Y5Z0); test: BACE-2 Assay (BACE-HTRF assay); type: biochemical; conditions: Ki calculated from IC50 using the Cheng-Prusoff equation; QSY7-EISEVNLDAEFC-Eu-amide substrate, pH 5.0; read-out: BACE2 Ki
Method: Inhibitor IC50s at purified human autoBACE-2 are determined in a time-resolved endpoint proteolysis assay that measures hydrolysis of the QSY7-EISEVNLDAEFC-Eu-amide FRET peptide substrate (BACE-HTRF assay). BACE-mediated hydrolysis of this peptide results in an increase in relative fluorescence (RFU) at 620 nm after excitation with 320 nm light. Inhibitor compounds, prepared at 3× the desired final concentration in 1×BACE assay buffer (20 mM sodium acetate pH 5.0, 10% glycerol, 0.1% Brij-35) supplemented with 7.5% DMSO are pre-incubated with an equal volume of autoBACE-2 enzyme diluted in 1×BACE assay buffer (final enzyme concentration 1 nM) in black 384-well NUNC plates for 30 minutes at 30° C. The assay is initiated by addition of an equal volume of the QSY7-EISEVNLDAEFC-Eu-amide substrate (200 nM final concentration, Km=8 μM […] for autoBACE-2) prepared in 1×BACE assay buffer supplemented with 7.5% DMSO and incubated for 90 minutes at 30° C. DMSO is present at 5% final concentration in the assay. Following laser excitation of sample wells at 320 nm, the fluorescence signal at 620 nm is collected for 400 ms following a 50 μs delay on a RUBYstar HTRF plate reader (BMG Labtechnologies). Raw RFU data is normalized to maximum (1.0 nM BACE/DMSO) and minimum (no enzyme/DMSO) RFU values. IC50s are determined by nonlinear regression analysis (sigmoidal dose response, variable slope) of percent inhibition data with minimum and maximum values set to 0 and 100 percent respectively. Similar IC50s are obtained when using raw RFU data. The Ki values are calculated from the IC50 using the Cheng-Prusoff equation.

[2] = target: soluble human BACE1 catalytic domain (Homo sapiens (Human), UniProt P56817); test: BACE1 HTRF FRET Assay; type: biochemical; conditions: Ki calculated from IC50 using the Cheng-Prusoff equation; QSY7-APPswe-Eu substrate, pH 5.0
Sequence of soluble human BACE1 catalytic domain (P56817 75-416): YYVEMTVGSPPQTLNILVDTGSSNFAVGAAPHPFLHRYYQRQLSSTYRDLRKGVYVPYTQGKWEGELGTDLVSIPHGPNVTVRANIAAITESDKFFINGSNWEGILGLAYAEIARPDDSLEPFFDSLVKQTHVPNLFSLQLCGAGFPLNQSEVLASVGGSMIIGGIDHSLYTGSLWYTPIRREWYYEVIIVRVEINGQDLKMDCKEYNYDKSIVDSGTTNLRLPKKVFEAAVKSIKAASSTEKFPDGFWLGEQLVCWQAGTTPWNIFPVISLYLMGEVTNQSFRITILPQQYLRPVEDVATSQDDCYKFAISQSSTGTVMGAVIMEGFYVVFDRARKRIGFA
Text: Reagents: Na^+-Acetate pH 5.0; 1% Brij-35; Glycerol; Dimethyl Sulfoxide (DMSO);
A homogeneous time-resolved FRET assay can be used to determine IC50 values for inhibitors of the soluble human BACE1 catalytic domain. This assay monitors the increase of 620 nm fluorescence that resulted from BACE1 cleavage of an APPswedish APP^swe mutant peptide FRET substrate (QSY7-[…]-Europium-amide). This substrate contains an N-terminal QSY7 moiety that serves as a quencher of the C-terminal Europium fluorophore (620 nm Em). […] Inhibition of BACE1 cleavage of the QSY7-APP^swe-Eu substrate by inhibitors is manifested as a suppression of 620 nm fluorescence.
Reactions are initiated by addition of 10 μl of 600 nM QSY7-APP^swe-Eu substrate (200 nM final) to give a final reaction volume of 30 μl in a 384 well Nunc HTRF plate. The reactions are incubated at 30° C. for 1.5 hours. The 620 nm fluorescence is then read on a Rubystar HTRF plate reader (BMG Labtechnologies) using a 50 millisecond delay followed by a 400 millisecond acquisition time window. Inhibitor IC50 values are derived from non-linear regression analysis of concentration response curves.

Sequence of purified human autoBACE-2 (Q9Y5Z0 63-473): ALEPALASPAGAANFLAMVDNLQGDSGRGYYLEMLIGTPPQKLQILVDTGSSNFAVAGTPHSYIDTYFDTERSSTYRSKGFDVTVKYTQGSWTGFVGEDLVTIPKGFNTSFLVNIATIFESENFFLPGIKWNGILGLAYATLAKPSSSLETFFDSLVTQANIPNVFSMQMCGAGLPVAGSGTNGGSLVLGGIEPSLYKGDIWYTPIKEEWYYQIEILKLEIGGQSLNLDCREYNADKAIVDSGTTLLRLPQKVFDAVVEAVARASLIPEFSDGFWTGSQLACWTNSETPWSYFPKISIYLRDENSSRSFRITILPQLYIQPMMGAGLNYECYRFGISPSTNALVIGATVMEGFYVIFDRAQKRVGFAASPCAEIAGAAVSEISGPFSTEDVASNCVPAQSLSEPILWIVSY

Row | SMILES | Ki [1] | Ki [2]
1 | Cc1cc(C#N)cnc1C(=O)Nc1ccc(F)c([C@]2(C)CS(=O)(=O)C3(CNC3)C(=N)N2)c1 [Example 36e, 5-cyano-N-{4-fluoro-3-[(7R)-9-imino-7-methyl-5,5-dioxido-5-thia-2,8-diazaspiro[3.5]non-7-yl]phenyl}-3-methylpyridine-2-carboxamide] | 1.8 nM | 4.1 nM
2 | COc1ccc(C(=O)Nc2ccc(F)c([C@]3(C)CS(=O)(=O)C4(CN(S(C)(=O)=O)C4)C(=N)N3)c2)nc1 [Example 38, (R)—N-(4-fluoro-3-(9-imino-7-methyl-2-(methylsulfonyl)-5,5-dioxido-5-thia-2,8-diazaspiro[3.5]nonan-7-yl)phenyl)-5-methoxypicolinamide] | 2.3 nM | 6.5 nM
3 | Cc1cc(C#N)cnc1C(=O)Nc1ccc(F)c([C@]2(C)CS(=O)(=O)C3(CN(C)C3)C(=N)N2)c1 [Example 11, 5-cyano-N-{4-fluoro-3-[(7R)-9-imino-2,7-dimethyl-5,5-dioxido-5-thia-2,8-diazaspiro[3.5]non-7-yl]phenyl}-3-methylpyridine-2-carboxamide] | 1 nM | 1.3 nM
4 | COc1cnc(C(=O)Nc2ccc(F)c([C@]3(C)CS(=O)(=O)C4(CCN(C)CC4)C(=N)N3)c2)c(C)n1 [Example 34, N-{4-fluoro-3-[(3R)-5-imino-3,9-dimethyl-1,1-dioxido-1-thia-4,9-diazaspiro[5.5]undec-3-yl]phenyl}-5-methoxy-3-methylpyrazine-2-carboxamide] | 23 nM | 37 nM
5 | COc1cnc(C(=O)Nc2ccc(F)c([C@]3(C)CS(=O)(=O)C4(CN(C)C4)C(=N)N3)c2)c(C)c1 [Example 9, N-{4-fluoro-3-[(7R)-9-imino-2,7-dimethyl-5,5-dioxido-5-thia-2,8-diazaspiro[3.5]non-7-yl]phenyl}-5-methoxy-3-methylpyridine-2-carboxamide] | 0.9 nM | 6.3 nM
6 | CN1CCC2(CC1)C(=N)N[C@](C)(c1cc(NC(=O)c3ccc(Cl)cn3)ccc1F)CS2(=O)=O [Example 29, (R)-5-chloro-N-(4-fluoro-3-(5-imino-3,9-dimethyl-1,1-dioxido-1-thia-4,9-diazaspiro[5.5]undecan-3-yl)phenyl)picolinamide] | 3 nM | 12 nM
7 | CN1CC2(C1)C(=N)N[C@](C)(c1cc(NC(=O)c3ncc(C#N)cc3C(F)F)ccc1F)CS2(=O)=O [Example 12b, 5-cyano-3-(difluoromethyl)-N-{4-fluoro-3-[(7R)-9-imino-2,7-dimethyl-5,5-dioxido-5-thia-2,8-diazaspiro [3.5]non-7-yl]phenyl}pyridine-2-carboxamide] | 0.5 nM | 1.4 nM
8 | COc1ccc(C(=O)Nc2ccc(F)c([C@]3(C)CS(=O)(=O)C4(CN(c5ccc([N+](=O)[O-])cc5)C4)C(=N)N3)c2)nc1 [Example 42, (R)—N-(4-fluoro-3-(9-imino-7-methyl-2-(4-nitrophenyl)-5,5-dioxido-5-thia-2,8-diazaspiro[3.5]nonan-7-yl)phenyl)-5-methoxypicolinamide] | 0.32 nM | 1.4 nM
9 | CN1CCC2(CC1)C(=N)N[C@](C)(c1cc(NC(=O)c3ccc(OC(F)F)cn3)ccc1F)CS2(=O)=O [Example 31, 5-(difluoromethoxy)-N-{4-fluoro-3-[(3R)-5-imino-3,9-dimethyl-1,1-dioxido-1-thia-4,9-diazaspiro[5.5]undec-3-yl]phenyl}pyridine-2-carboxamide] | 27 nM | 11 nM
10 | COc1cnc(C(=O)Nc2ccc(F)c([C@]3(C)CS(=O)(=O)C4(CCN(C)CC4)C(=N)N3)c2)c(C)c1 [Example 33, N-{4-fluoro-3-[(3R)-5-imino-3,9-dimethyl-1,1-dioxido-1-thia-4,9-diazaspiro[5.5]undec-3-yl]phenyl}-5-methoxy-3-methylpyridine-2-carboxamide] | 23 nM | 37 nM
11 | CN1CCC2(CC1)C(=N)N[C@](C)(c1cc(NC(=O)c3ccc(OCF)cn3)ccc1F)CS2(=O)=O [Example 32, N-{4-fluoro-3-[(3R)-5-imino-3,9-dimethyl-1,1-dioxido-1-thia-4,9-diazaspiro[5.5]undec-3-yl]phenyl}-5-(fluoromethoxy) pyridine-2-carboxamide] | 11 nM | 14 nM
12 | COc1ccc(C(=O)Nc2ccc(F)c([C@]3(C)CS(=O)(=O)C4(CN(C(C)=O)C4)C(=N)N3)c2)nc1 [Example 37, (R)—N-(3-(2-acetyl-9-imino-7-methyl-5,5-dioxido-5-thia-2,8-diazaspiro[3.5]nonan-7-yl)-4-fluorophenyl)-5-methoxypicolinamide] | 1.1 nM | 1.6 nM
13 | CN1CCC2(CC1)C(=N)N[C@](C)(c1cc(NC(=O)c3ccc(F)cn3)ccc1F)CS2(=O)=O [Example 26, 5-fluoro-N-{4-fluoro-3-[(3R)-5-imino-3,9-dimethyl-1,1-dioxido-1-thia-4,9-diazaspiro[5.5]undec-3-yl]phenyl}pyridine-2-carboxamide] | 6.4 nM | 37 nM
